Results taken from publication PMC8739840, “Structural and Molecular Insight into Piperazine and Piperidine Derivatives as Histamine H3 and Sigma-1 Receptor Antagonists with Promising Antinociceptive Properties” (ACS Chemical Neuroscience, 2021).
Structures can show the parent of a compound that is named as a salt. Where two headings read alike, the source gives them in different places.

Tests used:
σ2R [1] = conditions: cited from earlier work
σ1R [2] = conditions: cited from earlier work
H3R = conditions: Figure 1, clinically evaluated H3R antagonists; cited from earlier work
σ2R [3] = biological target: T1, σ2R (Rattus norvegicus, UniProt Q5U3Y7); experiment: σ2R radioligand binding ([3H]DTG, liver membranes)
T1 sequence (Q5U3Y7 1-176): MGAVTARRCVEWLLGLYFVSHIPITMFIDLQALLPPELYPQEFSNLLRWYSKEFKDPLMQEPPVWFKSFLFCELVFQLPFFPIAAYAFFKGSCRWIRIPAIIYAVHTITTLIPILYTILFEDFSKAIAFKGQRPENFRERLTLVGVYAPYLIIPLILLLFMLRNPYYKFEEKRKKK

[4] = biological target: T2, human recombinant histamine H3R (Homo sapiens, UniProt Q9Y5N1); conditions: mean [CI 95%]; read-out: hH3R Ki; cited from earlier work
T2 construct: expressed in transfected cells

σ1R [5] = biological target: σ1R (Cavia porcellus, UniProt Q60492); experiment: σ1R radioligand binding ([3H](+)-pentazocine, brain cortex membranes)
σ1R [6] = experiment: as above; conditions: σ2R Ki / σ1R Ki (selectivity factor)
[7] = biological target: T2, human recombinant histamine H3R; experiment: hH3R radioligand depletion binding assay ([3H]Nα-methylhistamine); conditions: mean [CI 95%]; HEK293 cells; data not published yet
female CD1 mice = experiment: loperamide-induced antinociception, paw pressure struggle response latency; assay type: in vivo; conditions: mice
[8] = Table S1, well-known ligands (test set), no reference given, read-out: Exp. σ2 Ki
[9] = Table S1, well-known ligands (test set), no reference given, read-out: Exp. σ1 Ki
[10] = Figure 1, clinically evaluated H3R antagonists, read-out: σ1R Ki
[11] = exptl Ki σ2, Table 3, given as mean ± spread
[12] = σ2R Ki, mean [CI 95%], [3H]DTG with (+)-pentazocine mask
[13] = exptl Ki σ1, Table 3, given as mean ± spread
[14] = σ1R Ki, mean [CI 95%], [3H](+)-pentazocine

T2 sequence (Q9Y5N1 whole entry): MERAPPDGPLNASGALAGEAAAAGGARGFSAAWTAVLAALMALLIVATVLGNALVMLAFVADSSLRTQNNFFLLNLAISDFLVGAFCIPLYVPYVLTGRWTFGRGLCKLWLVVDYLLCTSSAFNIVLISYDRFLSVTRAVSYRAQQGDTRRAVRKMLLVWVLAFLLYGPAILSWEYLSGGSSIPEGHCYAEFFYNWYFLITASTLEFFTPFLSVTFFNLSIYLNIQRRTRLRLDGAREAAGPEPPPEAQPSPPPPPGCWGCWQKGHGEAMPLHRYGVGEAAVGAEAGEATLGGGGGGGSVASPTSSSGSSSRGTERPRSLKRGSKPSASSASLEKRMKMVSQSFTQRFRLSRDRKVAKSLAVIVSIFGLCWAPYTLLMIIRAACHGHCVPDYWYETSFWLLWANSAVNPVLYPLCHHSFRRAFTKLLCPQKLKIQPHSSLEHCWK
Sequence of σ1R (Cavia porcellus, UniProt Q60492) (Q60492 whole entry): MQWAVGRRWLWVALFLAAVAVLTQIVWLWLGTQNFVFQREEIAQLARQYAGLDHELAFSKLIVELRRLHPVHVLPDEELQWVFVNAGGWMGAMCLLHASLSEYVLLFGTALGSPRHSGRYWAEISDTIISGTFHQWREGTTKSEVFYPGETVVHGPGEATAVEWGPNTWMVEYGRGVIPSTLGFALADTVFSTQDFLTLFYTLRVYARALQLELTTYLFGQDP

Structure (SMILES) | Ki (σ2R [3]; [11]) [nM] | Ki (σ2R [3]; [12]) [nM] | Ki (σ1R [5]; [13]) [nM] | Ki (σ1R [5]; [14]) [nM] | σ2/σ1 ratio (σ1R [6]) | also measured
COc1cc2c(cc1OC)CN(CCCCNC(=O)c1cc(C)ccc1OCCF)CC2 [F-ISO] | – | – | – | – | – | Ki (σ2R [1]; [8]): 6.95 nM; Ki (σ1R [2]; [9]): 330 nM
C[C@@H]1CCCN1CCc1cc2cc(-c3ccc(C#N)cc3)ccc2o1 [ABT-239] | – | – | – | – | – | Ki (H3R): 15.9 nM; Ki (σ1R [2]; [10]): 6.3 nM
CC(C(O)c1ccc(O)cc1)N1CCC(Cc2ccccc2)CC1 (stereo not shown) [Ifenprodil] | – | – | – | – | – | Ki (σ2R [1]; [8]): 18.8 nM; Ki (σ1R [2]; [9]): 1.02 nM
CN1CCN(CCc2ccc(Cl)c(Cl)c2)CC1 [BD1063] | – | – | – | – | – | Ki (σ1R [2]; [9]): 13.7 nM
O=C(OCCN1CCOCC1)C1(c2ccccc2)CCCCC1 [PRE-084, 2-[4-morpholinethyl]1-phenylcyclohexanecarboxylate hydrochloride] | – | – | – | – | – | Ki (σ2R [1]; [8]): 13100 nM; Ki (σ2R [1]; reference σ1R ligands, read-out: σ2R Ki): > 10000 nM; Ki [7]: > 10000 nM; effect of coadministration on potentiation of loperamide antinociception by S1RA (female CD1 mice; 75 μg ipl with S1RA, loperamide-treated, identical with 5 or 11): completely abolished the effect of the σ1R antagonist
O=C(c1ccccc1)c1ccc(OCCCN2CCN(c3ccncc3)CC2)cc1 [Compound 8] | 29.2 ± 1.81 | 29.2 | 726 ± 177 | 726 | – | –
COOc1c(OC)cc(I)cc1C(=O)NCCCCN1CCc2cc(OC)c(OC)cc2C1 [RHM-4, N-(4-(6,7-Dimethoxy-3,4-dihydroisoquinolin-2(1H)-yl)butyl)-5-iodo-3-methoxy-2-(methylperoxy)benzamide] | – | – | – | – | 0.00012 | Ki (σ2R [1]; read-out: σ2R Ki): 0.26 nM; Ki (σ1R [2]; read-out: σ1R Ki): 2150 nM
CNC(=O)c1ccc(Oc2ccc3c(c2)CCN(C2CCC2)CC3)nc1 [GSK189254] | – | – | – | – | – | Ki (H3R): 1.7 nM; Ki (σ1R [2]; [10]): 240 nM
Cc1cc(OCCN2CCOCC2)nn1-c1ccc2ccccc2c1 [S1RA, 4-[2-[[5-methyl-1-(2-naphthalenyl)-1H-pyraol-3-yl]oxy]ethyl]morpholine hydrochloride, reference compound] | – | – | – | – | – | Ki [7]: > 10000 nM; effect on loperamide-induced antinociception (female CD1 mice; ipl 100 μg + loperamide 4 mg/kg sc, injected paw): significantly increased the antinociceptive effect induced by loperamide; effect alone on struggle response latency to mechanical stimulus (female CD1 mice; ipl 100 μg, 450 g paw pressure, without loperamide): did not change the response to the mechanical stimulus
CN(C)C(=O)C(CCN1CCC(O)(c2ccc(Cl)cc2)CC1)(c1ccccc1)c1ccccc1 [loperamide, loperamide hydrochloride, reference compound] | – | – | – | – | – | struggle response latency versus solvent (female CD1 mice; 4 mg/kg sc alone): minimal (nonsignificant) increase in the struggle response latency
C#CCN(C)Cc1cc2cc(OCCCN3CCCCC3)ccc2n1C [Contilisant] | – | – | – | – | – | Ki (σ2R [1]; Figure 1, clinically evaluated H3R antagonists, read-out: σ2R Ki): 326 nM; Ki (H3R): 10.8 nM; Ki (σ1R [2]; [10]): 65.2 nM
C=CCN1CC[C@]23c4c5ccc(O)c4O[C@H]2C(=O)CC[C@@]3(O)[C@H]1C5 [naloxone, Naloxone hydrochloride, reference compound] | – | – | – | – | – | effect on antinociception of loperamide + S1RA (female CD1 mice; 1 mg/kg sc, identical with 5 or 11): full reversion of the antinociceptive effect of the combination of loperamide + S1RA
O=C(c1ccccc1)c1ccc(OCCCN2CCCCC2)cc1 [Compound 12] | 96.2 ± 14.7 | 96.2 | 14.8 ± 1.86 | 14.8 | 6.5 | Ki [7]: 22 nM
c1cc(OCCCN2CCCCC2)ccc1CN1CCCCC1 [JNJ-5207852] | – | – | – | – | – | Ki (H3R): 0.3 nM; Ki (σ1R [2]; [10]): 1170 nM
O=C(c1ccc(OCCCN2CCN(c3ccncc3)CC2)cc1)C1CC1 [Compound 4] | 101 ± 15.4 | 101 | 1530 ± 275 | 1530 | 0.1 | Ki [4]: 3 nM

Continued, in another order:

Ki (σ2R [3]; [11]) [nM] | Ki (σ2R [3]; [12]) [nM] | Ki (σ1R [5]; [13]) [nM] | Ki (σ1R [5]; [14]) [nM] | σ2/σ1 ratio (σ1R [6]) | Structure (SMILES) | also measured
75.2 ± 13 | 75.2 | – | – | – | N#Cc1ccc(-c2ccc(OCCCN3CCN(c4ccncc4)CC3)cc2)cc1 [Compound 7] | –
59.7 ± 11.2 | 59.7 | 408 ± 111 | 408 | 0.1 | CC(=O)c1ccc(OCCCCCCCCN2CCN(c3ccncc3)CC2)cc1 [Compound 19] | Ki [4]: 40.5 nM
130 ± 8.23 | 130 | 112 ± 9.45 | 112 | 1.2 | CC(C)(C)c1ccc(OCCCN2CCN(c3ccncc3)CC2)cc1 [Compound 2] | –
164 ± 34.6 | 164 | 1310 ± 332 | 1310 | 0.1 | O=C(c1ccc(F)cc1)c1ccc(OCCCN2CCN(c3ccncc3)CC2)cc1 [Compound 10] | –
247 ± 39.4 | 247 | 1410 ± 312 | 1410 | 0.2 | CC(=O)c1ccc(OCCCN2CCN(c3ccncc3)CC2)cc1 [Compound 3] | –
108 ± 19.2 | 108 | 638 ± 120 | 638 | 0.2 | c1ccc(-c2ccc(OCCCN3CCN(c4ccncc4)CC3)cc2)cc1 [Compound 6] | Ki [4]: 21.1 nM
64.3 ± 14 | 64.3 | 592 ± 94.1 | 592 | 0.1 | CCc1ccc(OCCCN2CCN(c3ccncc3)CC2)cc1 [Compound 1] | Ki [4]: 40.4 nM
151 ± 26.4 | 151 | 37.8 ± 16.1 | 37.8 | 4.0 | CC(=O)c1ccc(OCCCCCCN2CCN(c3ccncc3)CC2)cc1 [Compound 16] | Ki [4]: 12.7 nM
179 ± 27.2 | 179 | 255 ± 48 | 255 | 0.7 | CC(C)(C)c1ccc(OCCCCCCN2CCN(c3ccncc3)CC2)cc1 [Compound 18] | Ki [4]: 397 nM
32.4 ± 3.46 | 32.4 | 641 ± 87.9 | 641 | 0.1 | O=C(c1ccc(Cl)cc1)c1ccc(OCCCN2CCN(c3ccncc3)CC2)cc1 [Compound 9] | –
1790 ± 415 | 1800 | > 10000 | > 10000 | <0.2 | CC(=O)c1ccc(OCCCCN2CCN(c3ccncc3)CC2)cc1 [Compound 15] | –
175 ± 35.1 | 175 | 51.8 ± 9.1 | 51.8 | 3.4 | CC(C)(C)c1ccc(OCCCCN2CCN(c3ccncc3)CC2)cc1 [Compound 13] | –
110 ± 15.9 | 110 | 248 ± 30.9 | 248 | 0.4 | CCC(=O)c1ccc(OCCCCCCN2CCN(c3ccncc3)CC2)cc1 [Compound 17] | Ki [4]: 16.9 nM
65.9 ± 11 | 65.9 | 274 ± 40.4 | 274 | 0.2 | CCC(=O)c1ccc(OCCCCCCCCN2CCN(c3ccncc3)CC2)cc1 [Compound 20] | Ki [4]: 38.9 nM
101 ± 19.3 | 101 | 285 ± 50.4 | 285 | 0.4 | CCC(C)(C)c1ccc(OCCCCN2CCN(c3ccncc3)CC2)cc1 [Compound 14] | –
